Publication PMC9268552, “Synthesis of Pyrimidine Conjugates with 4-(6-Amino-hexanoyl)-7,8-difluoro-3,4-dihydro-3-methyl-2H-[1,4]benzoxazine and Evaluation of Their Antiviral Activity” (Molecules, 2022)
Values joined by “and” are separate entries in the source; they are usually repeats but may differ in a detail not shown here. Identical values can stand only once. Like-named read-outs stand apart in the source and are kept apart here.

Columns and labels:
[1] = tested on: HSV-1/L2; assay: Suppression of virus-induced cytopathogenic effect (CPE), reference strain HSV-1/L2 in Vero E6 cells; settings: for IC50: Human alphaherpesvirus 1, Vero C1008, read-out: IC50 (50% inhibition of virus-induced CPE)
From the text: (§1) The anti-herpesvirus activity of the synthesized compounds 5a–e was studied against the reference strain HSV-1/L2 and the acyclovir-resistant strain HSV-1/L2/R in the Vero E6 cells (Table 1) by suppressing the virus-induced cytopathogenic effect (CPE) as described previously. Acyclovir, Foscarnet (sodium phosphonoformate hexahydrate), a drug of choice in clinical practice in case of inefficiency of acyclovir and related compounds, including cases of drug resistance, and Ribavirin, were used as reference drugs. To assess the cytotoxicity of the studied compounds, the percentage of viable and non-viable cells was determined using Trypan blue exclusion assay.

[2] = Cytotoxicity in Vero E6 cells (Trypan blue exclusion assay); settings: African green monkey
From the text: as §1

[3] = tested on: influenza virus A/Puerto Rico/8/34 (H1N1); assay: organism not typed; settings: MDCK, read-out: IC50 (50% inhibition of virus-induced CPE)
[4] = tested on: HSV-1/L2/R; assay: microbe, parasite or virus in culture; settings: for SI (CC50/IC50): HSV-1/L2/R (acyclovir-resistant), Vero E6 cells; for IC50: Human alphaherpesvirus 1, Vero C1008, read-out: IC50 (50% inhibition of virus-induced CPE)
From the text: as §1

[5] = in vitro; settings: dog
[6] = tested on: influenza virus A/Puerto Rico/8/34 (H1N1); settings: influenza A/Puerto Rico/8/34 (H1N1); MDCK cells
[7] = tested on: HSV-1/L2; settings: cited from earlier work
[8] = tested on: influenza virus A/Puerto Rico/8/34 (H1N1); settings: influenza A/Puerto Rico/8/34 (H1N1), MDCK cells, data for comparison, ref [31], cited from earlier work
[9] = tested on: HSV-1/L2/R; settings: HSV-1/L2/R (acyclovir-resistant); Vero E6 cells; data for comparison; ref [27]; cited from earlier work
[10] = tested on: MDCK cells; settings: read-out: CC50 ± SD, data for comparison, ref [31]; cited from earlier work
[11] = tested on: Vero E6 cells; settings: read-out: CC50 ± SD, data for comparison, ref [27]; cited from earlier work

Structure (SMILES) | melting point [°C] | SI (CC50/IC50) ([1]; HSV-1/L2, Vero E6 cells) | IC50 [1] [µM] | CC50 [2] [µM] | IC50 [3] [µM] | SI (CC50/IC50) [4] | IC50 [4] [µM] | CC50 [5] [µM] | SI (CC50/IC50) [6] | also measured
C[C@H]1COc2c(ccc(F)c2F)N1C(=O)CCCCCNc1ccnc(N)n1.O (hydrate or solvate) [(S)-5a, (S)-4-[6-(2-Aminopyrimidin-4-yl)aminohexanoyl]-7,8-difluoro-3,4-dihydro-3-methyl-2H-[1,4]benzoxazine Hydrate] | 78 to 80 |  |  |  |  |  |  |  |  | 
C[C@@H]1COc2c(ccc(F)c2F)N1C(=O)CCCCCNc1ccnc(N)n1.C[C@@H]1COc2c(ccc(F)c2F)N1C(=O)CCCCCNc1ccnc(N)n1.O.O.O (racemic) (hydrate or solvate) [(RS)-5a, (RS)-4-[6-(2-Aminopyrimidin-4-yl)aminohexanoyl]-7,8-difluoro-3,4-dihydro-3-methyl-2H-[1,4]benzoxazine Sesquihydrate] | 59 to 60 |  |  |  |  |  |  |  |  | 
C[C@@H]1COc2c(ccc(F)c2F)N1C(=O)CCCCCNc1ncnc2[nH]ccc12.C[C@@H]1COc2c(ccc(F)c2F)N1C(=O)CCCCCNc1ncnc2[nH]ccc12.O (racemic) (hydrate or solvate) [(RS)-5e, (RS)-7,8-Difluoro-3,4-dihydro-3-methyl-4-[6-(7H-pyrrolo[2,3-d]pyrimidin-4-yl)aminohexanoyl]-2H-[1,4]benzoxazine Hemihydrate] | 86 to 88 |  |  |  |  |  |  |  |  | 
C[C@@H]1COc2c(ccc(F)c2F)N1C(=O)CCCCCNc1ccnc(N)n1.C[C@@H]1COc2c(ccc(F)c2F)N1C(=O)CCCCCNc1ccnc(N)n1.O.O.O (racemic) [(RS)-5a, (RS)-4-[6-(2-Aminopyrimidin-4-yl)aminohexanoyl]-7,8-difluoro-3,4-dihydro-3-methyl-2H-[1,4]benzoxazine Sesquihydrate] |  | 8 and 8.1 | 18.6 | 151 ± 8.36 | 8 ± 1 | 8 | 18.6 | 11 ± 1 | >1 | 
CC1COc2c(ccc(F)c2F)N1C(=O)CCCCCNc1cc(Cl)nc(N)n1 (racemic) [(RS)-5b, (RS)-4-[6-(2-Amino-6-chloropyrimidin-4-yl)aminohexanoyl]-7,8-difluoro-3,4-dihydro-3-methyl-2H-[1,4]benzoxazine] | 92 to 94 | 3.7 | 73.4 | 275 ± 4.3 | 92 ± 11 | <4 | 73.4 | 705 ± 42 | <8 | 
CC1COc2c(ccc(F)c2F)N1C(=O)CCCCCNc1cc(Cl)ncn1 (racemic) [(RS)-5c, (RS)-4-[6-(6-Chloropyrimidin-4-yl)aminohexanoyl]-7,8-difluoro-3,4-dihydro-3-methyl-2H-[1,4]benzoxazine] | 101 to 103 | >2.0 | 148 | > 304 | > 8 | 2 | 152 | 9 ± 1 | 1 | 
CC1COc2c(ccc(F)c2F)N1C(=O)CCCCCNc1ncccn1 (racemic) [(RS)-5d, (RS)-7,8-Difluoro-3,4-dihydro-3-methyl-4-[6-(pyrimidin-2-yl)aminohexanoyl]-2H-[1,4]benzoxazine] | 106 to 108 | 1.7 | 297 | 505 ± 17.7 | > 88 | <2 | 297 | 257 ± 12 |  | 
C[C@@H]1COc2c(ccc(F)c2F)N1C(=O)CCCCCNc1ncnc2[nH]ccc12.C[C@@H]1COc2c(ccc(F)c2F)N1C(=O)CCCCCNc1ncnc2[nH]ccc12.O (racemic) [(RS)-5e, (RS)-7,8-Difluoro-3,4-dihydro-3-methyl-4-[6-(7H-pyrrolo[2,3-d]pyrimidin-4-yl)aminohexanoyl]-2H-[1,4]benzoxazine Hemihydrate] |  | <1 | 18.6 | 17.6 ± 0.85 | > 80 | <1 | 18.6 | 86 ± 4 | 1 | 
C[C@H]1COc2c(ccc(F)c2F)N1C(=O)CCCCCNc1ncnc2[nH]cnc12 [(S)-1] |  |  |  |  |  |  |  |  |  | SI (CC50/IC50) ([7]; Vero E6 cells, data for comparison, ref [27]): 64; IC50 ([7]; read-out: IC50 (50% inhibition of virus-induced CPE), Vero E6 cells, data for comparison, ref [27]): 4.6 µM; SI (CC50/IC50) [8]: >2 ^1; IC50 ([8]; read-out: IC50 (50% inhibition of virus-induced CPE)): > 10 µM; SI (CC50/IC50) [9]: 64 ^1; CC50 [10]: 24 ± 1 µM; CC50 [11]: 293 ± 15.5 µM
C[C@H]1COc2c(ccc(F)c2F)N1C(=O)CCCCCNc1ccnc(N)n1.O [(S)-5a, (S)-4-[6-(2-Aminopyrimidin-4-yl)aminohexanoyl]-7,8-difluoro-3,4-dihydro-3-methyl-2H-[1,4]benzoxazine Hydrate] |  | 3.7 | 9.27 | 34.6 ± 0.88 | 7 ± 1 | <4 | 9.27 | 23 ± 1.2 | >3 | 
C[C@H]1COc2c(ccc(F)c2F)N1C(=O)CCCCCNc1ncnc2[nH]ccc12 [(S)-5e, (3S)-7,8-Difluoro-3,4-dihydro-3-methyl-4-[6-(7H-pyrrolo[2,3-d]pyrimidin-4-yl)aminohexanoyl]-2H-[1,4]benzoxazine] | 87 to 89 | 6 and 6.3 | 74.2 | 469 ± 10.8 | > 26 | 6 | 75.2 | 47 ± 3 | <2 | 
Nc1nc2c(ncn2COCCO)c(=O)[nH]1 [Acyclovir, reference compound] |  |  | 1.73 | > 444 |  | 1 | > 444 |  |  | SI (CC50/IC50) [1]: >256
O=C(O)P(=O)(O)O [Foscarnet, sodium phosphonoformate hexahydrate, reference compound] |  |  | 104 | > 417 |  | >4 | 104 |  |  | SI (CC50/IC50) [1]: >4
CCC(CC)O[C@@H]1C=C(C(=O)O)C[C@H](N)[C@H]1NC(C)=O [Oseltamivir carboxylate, reference compound] |  |  |  |  | 0.3 |  |  | > 200 | >667 | 
NC(=O)c1ncn([C@@H]2O[C@H](CO)[C@@H](O)[C@H]2O)n1 [Ribavirin, reference compound] |  |  | 1020 | > 4100 |  | >4 | 1020 |  |  | SI (CC50/IC50) [1]: >4
